Among the data in PubChem BioAssay (NCI) are TGI and GI50 values, retold here.

Several values for one entry are separate records, joined by “and”; a condition that tells them apart may be missing. Identical values can stand only once.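 Dose response: 5 concentrations. Exposure: 48 h. Format: 96-well plates. Endpoint: linear interpolation; highest concentration if not reached. Abbreviation: GI50, concentration required for 50% inhibition of growth. TGI: concentration producing complete growth inhibition.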

Holding throughout (assay): NCI tumour cell line growth inhibition, 48 h
Assay [1] relates to M14 melanoma.
Assay [2] deals with MCF7 breast.
Assay [3] has as its system CCRF-CEM leukemia.
Assay [4] deals with PC-3 prostate.
The test system of assay [5] is HCT-15 colon.
The test system of assay [6] is UACC-62 melanoma.
Assay [7] relates to NCI-H226 lung.
Assay [8] relates to HS 578T breast.
Assay [9] deals with RPMI-8226 leukemia.
The test system of assay [10] is HCC-2998 colon.

Take `COc1cc2ncnc(Nc3cccc(Br)c3)c2cc1OC`: the TGI in [1] was 20.6 µM; in assay [2], greater than 52 µM; in assay [3], greater than 89.8 µM; in assay [4], greater than 37.2 µM; in [5], 22.7 µM; in assay [6] it was 17.5 µM. For the same compound, the TGI in [7] is 18.5 µM; in [8], 53.2 µM; in assay [9] it was greater than 100 µM; in [10], 10.2 µM.

Take `COc1ccc(C2c3cc4c(cc3OC(N3CCOCC3)C2C)OCO4)cc1OC` (stereo not drawn): the TGI was 52.3 µM in assay [1]; greater than 96 µM in assay [2]; 62.5 µM in [3]; greater than 100 µM in [4]; greater than 100 µM in assay [5]; greater than 82.9 µM in assay [6]. Besides, the TGI in assay [7] was 31.7 µM; in [8], 22.1 µM; in assay [9] it was greater than 100 µM; in [10] it was greater than 44.8 µM.

For the compound `CCN1CC2=C(OC(N)=C(C#N)C2c2ccc(Cl)cc2)/C(=C/c2ccc(Cl)cc2)C1` (stereo not drawn), the TGI in assay [1] was greater than 100 µM; in assay [2], greater than 100 µM; in assay [3] it was greater than 100 µM; in assay [4], 98.9 µM; in assay [5], greater than 100 µM; in assay [6], greater than 100 µM. In addition, the TGI in [7] is 94.3 µM; in assay [8], greater than 100 µM; in [9] it was 85.1 µM; in assay [10], greater than 100 µM.

On to `Cc1c2ccccc2c(/C=N/NC(=O)CSCC(=O)N/N=C/c2c3ccccc3c(C)c3ccccc23)c2ccccc12`, for which the TGI was greater than 100 µM in assay [1]; greater than 78.7 µM in assay [2]; greater than 72.4 µM in assay [3]; greater than 67.5 µM in assay [4]; greater than 100 µM in [5]; greater than 100 µM in assay [6]. Also, the TGI in [7] was greater than 61.1 µM; in [8] it was greater than 100 µM; in assay [9], 51.9 µM; in [10], 65.1 µM.

Turning to `NC(=O)N/N=C(\Cc1cc(=O)oc2cc(O)ccc12)C(=O)Nc1ccccc1C(N)=O`, the TGI in assay [1], in [2], in assay [3], in [4], in [5] and in assay [6] was greater than 100 µM each time. In addition, the TGI in [7], in [8] and in assay [10] was greater than 100 µM throughout.

Take `CCCCCCc1cc2cc(C(=O)Nc3nc(C45CC6CC(CC(C6)C4)C5)cs3)c(=O)oc2cc1O`: the TGI in assay [2] is greater than 100 µM; in [3], 50.5 µM; in assay [4], 34.3 µM; in assay [5], 39.2 µM; in assay [6], 25.4 µM; in [7] it was 44.8 µM. Besides, the values for the TGI in assay [8], in assay [9] and in assay [10] were 46.9 µM, 39 µM and 32.8 µM, respectively.

For the compound `CCCCOc1ccc(/C=C/C2=[N+](CCO)CCO2)cc1`, the TGI in assay [1] is greater than 100 µM; in [2], greater than 100 µM; in assay [3], 67.1 µM; in [4], greater than 100 µM; in assay [5], greater than 100 µM; in assay [6], greater than 100 µM. The TGI was 70 µM in [7], greater than 100 µM in assay [8], 74.7 µM in assay [9] and 48.3 µM in [10].

As for `O=[N+]([O-])C1=Cc2c(O)ccc(O)c2C2OC=CC12` (stereo not drawn), the TGI in assay [1] is 34.5 µM; in assay [2], 30.9 µM; in [3], greater than 26.8 µM; in assay [4], 31 µM; in assay [5], 37 µM; in assay [6] it was 15.9 µM. Further, the TGI is greater than 73.8 µM in assay [7], 61.6 µM in assay [8], greater than 100 µM in assay [9] and greater than 57.8 µM in [10].

Turning to `CCOP(=O)(OCC)/C(C#N)=C/c1nc[nH]c1C`, the TGI in [1], in assay [2], in assay [3], in assay [4], in assay [5] and in assay [6] was greater than 100 µM throughout. For the same compound, the TGI in assay [7], in assay [8], in [9] and in [10] was greater than 100 µM in each case.

For `O=C1CC(Nc2ccccc2)c2c(Cl)sc(Cl)c21` (stereo not drawn), the TGI in assay [1] worked out at 3.4 µM; in [2] it was 5.21 µM; in assay [3], 0.442 µM; in assay [4] it was 3.06 µM; in assay [5], 2.36 µM; in [6], 2.69 µM. For the same compound, the TGI is 24 µM in assay [7], greater than 100 µM in assay [8], 0.0461 µM in assay [9] and 3.39 µM in assay [10].

Turning to `CC(=O)N1N=C(c2ccccc2)NC(=O)C1c1cc(C)c(O)c(C)c1` (stereo not drawn), the TGI was greater than 100 µM in assay [1]; 43.6 µM in assay [2]; greater than 100 µM in assay [3]; 79.7 µM in assay [4]; greater than 100 µM in [5]; 40 µM in assay [6]. The TGI in [7] is 49.7 µM; in assay [8], greater than 100 µM; in [9], greater than 100 µM; in assay [10], 45.9 µM.

Consider `C[C@]12CCC(=O)C=C1CC[C@@H]1[C@@H]2CC[C@]2(C)C(=O)/C(=C/c3ccc([N+](=O)[O-])cc3)C[C@@H]12`, for which the TGI is greater than 100 µM in assay [1]; 23.5 µM in [2]; greater than 100 µM in assay [3]; greater than 100 µM in assay [4]; greater than 100 µM in assay [5]; 46.2 µM in assay [6]. Moreover, the TGI in [7], in [8], in assay [9] and in assay [10] was greater than 100 µM each time.

For the compound `CC(C)(C)c1ccc(O)c(C(O)c2ccccn2)c1` (stereo not drawn), the TGI in assay [2] was greater than 100 µM; in [3], greater than 100 µM; in [4] it was greater than 100 µM; in assay [5], greater than 100 µM; in assay [6], 26.4 µM; in assay [7], greater than 100 µM. Moreover, the TGI in assay [8] was greater than 100 µM; in assay [9], greater than 100 µM; in [10], 85.9 µM.

For the compound `CCOC(=O)c1nc(SC)sc1NC(=O)c1ccc(OC)cc1`, the TGI in assay [1], in [2], in [3], in assay [4], in assay [5] and in assay [6] was greater than 100 µM each time. Also, the TGI in [7], in assay [8], in assay [9] and in assay [10] was greater than 100 µM in each case.

With `CCCCOC(=O)Nc1ccc(S(=O)(=O)Nc2c(Cl)cccc2Cl)cc1`, the TGI is greater than 100 µM in assay [1]; 92.4 µM in assay [2]; greater than 100 µM in assay [3]; greater than 100 µM in assay [4]; 79.5 µM in assay [5]; 54.6 µM in assay [6]. Moreover, the TGI in assay [8] is greater than 100 µM; in [9], 41.5 µM; in [10], 43.4 µM.

With `Cc1cc2c(cc1Cl)SSc1cc(Cl)c(C)cc1S(=O)(=O)Nc1nc(N)nn1C(O)n1nc(N)nc1NS2(=O)=O`, the TGI in assay [1], in [2], in assay [3], in assay [4], in [5] and in assay [7] was greater than 10 µM in each case. In addition, the TGI in [8], in assay [9] and in assay [10] was greater than 10 µM throughout.

Regarding `COc1cc(OC)c(-n2[nH]c(=O)n(C)c2=O)c(OC)c1`, the TGI in assay [1], in assay [2], in assay [3], in [4], in [5] and in [6] was greater than 100 µM each time. The TGI in assay [7], in assay [8], in assay [9] and in [10] was greater than 100 µM in each case.

On to `C/C(=N/NC(=S)N1CCCCCC1)c1cccc(/C(C)=N\NC(=S)N2CCCCCC2)n1`, for which the TGI in assay [1] turned out to be 3.53 µM; in assay [2], 3.46 µM; in [4], 5.2 µM; in assay [5], 5.36 µM; in assay [6], 5.27 µM; in assay [7], 3.31 µM. Further, the TGI in assay [8] is 8.82 µM; in [9] it was 5.33 µM; in [10], 6.38 µM.

`CC(C)(C)OC(=O)C1C(=O)NC(=O)CC1C(OCc1ccccc1)C(OCc1ccccc1)C(COCc1ccccc1)OCc1ccccc1` (stereo not drawn): the TGI in assay [1], in assay [2], in assay [3], in [4], in assay [5] and in [7] was greater than 100 µM each time. The TGI in [8], in assay [9] and in assay [10] was greater than 100 µM throughout. Besides, the GI50 was 50 µM and 15.3 µM in assay [2]; > 100 µM and 49.1 µM in [3]; > 100 µM and 16.2 µM in [8]; 78.7 µM and 23 µM in assay [9].

For `COc1ccc(-c2nc(-c3nc4cc(Cl)c(Cl)cc4[nH]3)c3ccccn23)cc1`, the GI50 was 4.92 µM in assay [1]; 7.2 µM in assay [2]; greater than 100 µM in assay [3]; 2.58 µM in [4]; 30.1 µM in assay [5]; 5.59 µM in [6]. Besides, the results for the GI50 in assay [8], in [9] and in assay [10] were 2.68 µM, 3.74 µM and greater than 100 µM, respectively. Further, the TGI in [1], in assay [2], in assay [3], in assay [4], in [5] and in [6] was greater than 100 µM each time. Moreover, the TGI in assay [8] is 7.02 µM; in assay [9], greater than 100 µM; in assay [10], greater than 100 µM.

On to `Cc1ccc(S(=O)(=O)N(CC(O)COc2ccccc2)c2c(F)c(F)c(F)c(F)c2F)cc1` (stereo not drawn), for which the TGI was determined as 41 µM in assay [1]; 23.2 µM in assay [2]; 29.2 µM in assay [4]; 33 µM in assay [5]; 33.5 µM in assay [6]; 42.7 µM in [7]. Also, the TGI in [8] was determined as 42.6 µM; in [9] it was 12.7 µM; in assay [10], 34.5 µM.

On to `Cc1cc2c3c(c1)S(=O)(=O)c1cc(Cl)ccc1N3CCC2`, for which the TGI in [1], in assay [2], in [3], in [4], in assay [5] and in [6] was greater than 100 µM each time. The TGI in assay [7], in assay [8] and in assay [10] was greater than 100 µM in each case.

For `CCOC(=O)CCCN`, the TGI in [1], in assay [2], in assay [3], in assay [4], in [5] and in assay [7] was greater than 100 µM in each case. Besides, the TGI in [8], in assay [9] and in [10] was greater than 100 µM throughout.

With `O=c1[nH]c2c(C(F)(F)F)c(Cl)c(-c3ccccc3)nc2o1`, the TGI in assay [1] is greater than 100 µM; in assay [2] it was greater than 100 µM; in assay [3], 34 µM; in assay [4], 76.2 µM; in assay [5] it was greater than 100 µM; in assay [6], greater than 100 µM. Further, the TGI in [7], in assay [8] and in assay [10] was greater than 100 µM each time.

As to `CCCSc1ccc2[nH]c(N3C(=O)/C(=C/c4ccc(O)c(OC)c4)N=C3c3ccccc3)cc2c1`, the TGI in assay [1] is 35.2 µM; in assay [2], greater than 100 µM; in assay [3] it was 93.8 µM; in assay [4], greater than 100 µM; in [5] it was 32 µM; in assay [6], 19.8 µM. Also, the TGI in assay [8] was 14.3 µM; in [9] it was 34.3 µM; in assay [10], 14.1 µM.

As to `CC1(N2CCOCC2)CC2C(=[N+]1[O-])CCC/C2=N/O` (stereo not drawn), the TGI in [1], in assay [2], in [3], in assay [4], in assay [5] and in assay [6] was greater than 100 µM throughout. The TGI in assay [7], in [8] and in assay [10] was greater than 100 µM each time.

Turning to `CCN(CC)C1=Nc2ccccc2-n2ccnc2C1`, the TGI in assay [1], in assay [2], in assay [3], in [4], in assay [5] and in [6] was greater than 100 µM each time. Further, the TGI in assay [7], in assay [8] and in assay [10] was greater than 100 µM throughout.
